Our source for the IC50 values is US11964938B2, “3-phenyl-4-hexynoic acid derivatives as GPR40 agonists” (CELON PHARMA S.A., priority 2018, dated 2024).

The structures appear in SMILES notation. Structures can show the parent of a compound that is named as a salt. Bounds are passed on as bounds.

One data set addresses T1, BSEP (Homo sapiens, UniProt O95342).
T1 construct: host or cells: HEK293 (membrane vesicles)
Description: Vesicular transport inhibition assay, BSEP. The conditions noted are these: membrane vesicles from HEK293 cells. The format is biochemical. The protocol: Experiment B4: Bile Acid Transporters Inhibition in the Liver. […] The compound was tested on a panel of 10 transporters: BSEP, MRP2, MRP3, MRP4 in a vesicular transport inhibition assay and NTCP, OAT1, OAT2v1, OATP1A2, OATP1B1, OATP1B3 in an uptake transporter inhibition assays. Vesicular transport inhibition assay was performed on membrane vesicles isolated from mammal HEK293 cells overexpressing human ABC transporters. Tested compound were incubated with vesicles and substrates for respective tested transporters. Incubation was performed in the presence of 4 mM ATP or AMP in order to differentiate between uptake by a transporter and passive diffusion into vesicles. In the case of MRP2 and MRP3, reactions were performed in the presence of 2 mM glutathione. Tested compounds were added to the reaction mixture dissolved in 0.75 μl of a solvent (1% of final incubation volume). Reaction mixtures were preincubated for 15 minutes at 37±1° C. Reactions were started by the addition of 25 μl of 12 mM MgATP (or 12 mM AMP) in test buffer, as a background control, separately preincubated.

The target of a further data set is T2, OAT1 (Homo sapiens, UniProt Q4U2R8).
T2 construct: host or cells: HEK293
T2 sequence (Q4U2R8 1-563): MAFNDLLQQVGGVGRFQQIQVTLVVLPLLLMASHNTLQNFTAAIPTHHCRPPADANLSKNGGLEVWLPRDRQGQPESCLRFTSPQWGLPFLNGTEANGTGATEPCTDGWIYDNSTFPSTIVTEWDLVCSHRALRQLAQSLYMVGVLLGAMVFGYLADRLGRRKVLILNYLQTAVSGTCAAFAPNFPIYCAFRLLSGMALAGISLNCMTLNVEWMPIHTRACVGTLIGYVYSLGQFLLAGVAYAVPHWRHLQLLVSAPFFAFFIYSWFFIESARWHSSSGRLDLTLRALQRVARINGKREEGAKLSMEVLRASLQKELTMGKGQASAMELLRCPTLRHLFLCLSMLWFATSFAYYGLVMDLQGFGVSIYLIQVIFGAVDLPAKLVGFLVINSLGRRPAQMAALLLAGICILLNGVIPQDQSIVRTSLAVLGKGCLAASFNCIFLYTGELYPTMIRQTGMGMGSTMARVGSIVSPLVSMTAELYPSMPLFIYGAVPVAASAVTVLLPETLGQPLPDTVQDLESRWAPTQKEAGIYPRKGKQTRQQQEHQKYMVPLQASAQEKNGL
Description: Uptake transporter inhibition assay, OAT1. Format: cell-based. The conditions noted are these: HEK293 cells overexpressing transporter. The protocol: (§1) Experiment B4: Bile Acid Transporters Inhibition in the Liver.
(§2) The compound was tested on a panel of 10 transporters: BSEP, MRP2, MRP3, MRP4 in a vesicular transport inhibition assay and NTCP, OAT1, OAT2v1, OATP1A2, OATP1B1, OATP1B3 in an uptake transporter inhibition assays.
(§3) Transporter uptake inhibition test was performed on mammal HEK293 cells overexpressing of a respective transporter. Cells were cultured at 37±1° C. and seeded on 96-well tissue culture plate at 1×10^5/well. Substrate was removed prior to experiment and cells were washed twice with 100 μl of respective buffer (HK pH 7.4 for OATP1B1 and HBSS pH 7.4 for NTCP, OAT1, OAT2v1, OATP1A2, and OATP1B3). Uptake studies were performed at 37±1° C. in 50 μl of respective buffer containing radioactively tagged substrate and tested compound or solvent.
(§4) After experiment cells were washed twice with 100 μl of ice-cold respective buffer and lysed with 50 μl of 0.1M NaOH. Transport of radioactively tagged substrate was determined by scintillation counter measurement.

A further data set has as its target T3, NTCP (Homo sapiens, UniProt Q14973).
T3 construct: host or cells: HEK293
T3 sequence (Q14973 1-349): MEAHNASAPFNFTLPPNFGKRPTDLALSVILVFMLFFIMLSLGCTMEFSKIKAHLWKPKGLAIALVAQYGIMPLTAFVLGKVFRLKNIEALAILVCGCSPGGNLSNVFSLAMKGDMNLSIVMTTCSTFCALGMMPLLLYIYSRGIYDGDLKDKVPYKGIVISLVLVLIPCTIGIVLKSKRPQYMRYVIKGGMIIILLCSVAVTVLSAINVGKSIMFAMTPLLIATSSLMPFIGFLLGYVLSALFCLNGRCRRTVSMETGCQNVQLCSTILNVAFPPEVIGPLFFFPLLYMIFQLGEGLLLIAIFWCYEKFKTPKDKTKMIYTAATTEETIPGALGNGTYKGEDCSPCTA
As to the kind of experiment: Uptake transporter inhibition assay, NTCP. Conditions: HEK293 cells overexpressing transporter. Format: cell-based. The protocol:
as §1, §2, §3, §4

T1 sequence (O95342 whole entry): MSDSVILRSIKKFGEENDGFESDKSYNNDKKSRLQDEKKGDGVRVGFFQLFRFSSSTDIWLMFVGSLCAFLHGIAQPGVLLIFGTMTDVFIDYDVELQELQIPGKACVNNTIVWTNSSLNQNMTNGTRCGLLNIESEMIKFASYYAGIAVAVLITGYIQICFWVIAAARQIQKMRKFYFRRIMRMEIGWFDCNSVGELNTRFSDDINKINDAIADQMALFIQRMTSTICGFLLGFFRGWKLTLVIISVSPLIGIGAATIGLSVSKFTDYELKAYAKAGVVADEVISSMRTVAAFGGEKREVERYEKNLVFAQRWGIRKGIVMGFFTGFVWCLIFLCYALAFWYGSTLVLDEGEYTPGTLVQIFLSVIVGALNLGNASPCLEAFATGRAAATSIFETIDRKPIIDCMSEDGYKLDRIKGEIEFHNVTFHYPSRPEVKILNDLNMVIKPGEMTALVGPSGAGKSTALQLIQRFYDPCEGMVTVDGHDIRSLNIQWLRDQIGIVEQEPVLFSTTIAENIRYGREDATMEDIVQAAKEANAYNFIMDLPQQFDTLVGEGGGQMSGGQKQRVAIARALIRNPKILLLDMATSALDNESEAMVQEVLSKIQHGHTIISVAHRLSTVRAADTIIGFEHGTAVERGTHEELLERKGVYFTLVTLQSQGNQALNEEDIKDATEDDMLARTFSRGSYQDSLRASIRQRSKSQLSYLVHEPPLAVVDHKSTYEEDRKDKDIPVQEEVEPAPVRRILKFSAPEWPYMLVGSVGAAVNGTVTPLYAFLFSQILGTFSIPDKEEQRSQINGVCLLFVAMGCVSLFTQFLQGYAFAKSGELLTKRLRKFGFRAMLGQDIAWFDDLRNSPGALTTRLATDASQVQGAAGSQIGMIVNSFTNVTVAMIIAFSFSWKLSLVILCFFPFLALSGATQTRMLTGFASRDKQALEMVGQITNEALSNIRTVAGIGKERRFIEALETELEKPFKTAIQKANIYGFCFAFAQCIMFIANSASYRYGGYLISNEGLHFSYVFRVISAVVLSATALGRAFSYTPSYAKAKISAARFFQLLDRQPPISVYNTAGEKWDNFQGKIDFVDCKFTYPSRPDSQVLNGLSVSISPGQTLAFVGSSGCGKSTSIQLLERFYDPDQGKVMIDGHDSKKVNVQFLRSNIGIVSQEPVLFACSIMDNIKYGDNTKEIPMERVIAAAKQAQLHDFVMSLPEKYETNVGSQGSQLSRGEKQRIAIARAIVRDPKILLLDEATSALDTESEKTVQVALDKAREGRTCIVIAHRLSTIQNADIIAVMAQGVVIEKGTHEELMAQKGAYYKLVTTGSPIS

As for `Cc1cc(OCCCS(C)(=O)=O)cc(C)c1-c1cccc(COc2ccc3c(c2)OC[C@H]3CC(=O)O)c1` [Example R1, 2[(3S)-6-({3-[4-(3-methanesulfonylpropoxy)-2,6-dimethylphenyl]-phenyl}methoxy)-2,3-dihydro-1-benzofuran-3-yl]acetic acid, reference compound], the 50% inhibitory concentration (IC50) amounted to 30 µM on BSEP, 34.8 µM against OAT1 and 53.1 µM at NTCP.
On the same counts, the results for `CC#C[C@@H](CC(=O)O)c1ccc(OCC(C)=C(C)C)cc1` [Example S1, (3S)-3-{4-[(2,3-dimethylbut-2-en-1-yl)oxy]phenyl}hex-4-ynoic acid calcium salt] are over 100 µM, 245 µM and 46.8 µM.
